Measured values taken from ChEMBL document CHEMBL1201862, “PubChem BioAssay data set” (2004).
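Tested at 5 concentrations; 48 h exposure; 96-well plates; endpoints linearly interpolated, else capped at highest concentration. GI50 = concentration required for 50% inhibition of growth.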 Calls of active or inactive are those of the source. Rule as the data show it: active = GI50 up to about 1.1 µM and inactive = higher.

Experiments:
Test in all cases: inhibition of tumour cell growth, NCI panel, 48 h
[1] = tested on: HCT-15
[2] = tested on: TK-10
[3] = tested on: ACHN
[4] = tested on: 786-0
[5] = tested on: NCI-H460
[6] = tested on: UACC-62
[7] = tested on: HCC 2998
[8] = tested on: COLO 205
[9] = tested on: K562
[10] = tested on: SK-MEL-2
[11] = tested on: A549
[12] = tested on: SNB-78
[13] = tested on: EKVX
[14] = tested on: SN12C
[15] = tested on: CAKI-1
[16] = tested on: UACC-257
[17] = tested on: UO-31
[18] = tested on: SNB-75
[19] = tested on: T47D
[20] = tested on: MDA-MB-231

| Compound | GI50 [1] [µM] | GI50 [2] | GI50 [3] | GI50 [4] | GI50 [5] | GI50 [6] | GI50 [7] | GI50 [8] | GI50 [9] | GI50 [10] | GI50 [11] | GI50 [12] | GI50 [13] | GI50 [14] | GI50 [15] | GI50 [16] | GI50 [17] | GI50 [18] | GI50 [19] | GI50 [20] |
| --- | --- | --- | --- | --- | --- | --- | --- | --- | --- | --- | --- | --- | --- | --- | --- | --- | --- | --- | --- | --- |
| Nc1ccc2c(c1)C(=O)N(OS(=O)(=O)c1ccccc1)C2=O | > 100 | > 100 µM (inactive) | > 100 µM (inactive) | > 100 µM (inactive) | > 100 µM (inactive) | > 100 µM (inactive) | > 100 µM (inactive) | 56.4 µM (inactive) | 86.1 µM (inactive) | > 100 µM (inactive) | > 100 µM (inactive) | > 100 µM (inactive) | > 100 µM (inactive) | > 100 µM (inactive) | > 100 µM (inactive) | > 100 µM (inactive) | > 100 µM (inactive) | > 100 µM (inactive) | – | – |
| Nc1ccc(O)c2c1C(=O)c1c(N)ccc(O)c1C2=O | > 100 | > 100 µM (inactive) | > 100 µM (inactive) | > 100 µM (inactive) | > 100 µM (inactive) | > 100 µM (inactive) | > 100 µM (inactive) | > 100 µM (inactive) | > 100 µM (inactive) | > 100 µM (inactive) | > 100 µM (inactive) | > 100 µM (inactive) | > 100 µM (inactive) | > 100 µM (inactive) | > 100 µM (inactive) | > 100 µM (inactive) | > 100 µM (inactive) | > 100 µM (inactive) | – | – |
| COc1cc(O)c2c(c1O)C(=O)c1cc(C)ncc1C2=O | 16.6 | > 50 µM (inactive) | 24.3 µM (inactive) | 23 µM (inactive) | 13.8 µM (inactive) | 17.3 µM (inactive) | 22.5 µM (inactive) | 20.3 µM (inactive) | 20 µM (inactive) | 22.3 µM (inactive) | 17 µM (inactive) | 37.8 µM (inactive) | 40.5 µM (inactive) | 17.9 µM (inactive) | – | 15 µM (inactive) | 14.3 µM (inactive) | 20.3 µM (inactive) | – | – |
| O=C1c2c(nc3ccccc3c2-c2ccccc2)CN1Nc1ccccn1 | > 75.5 | > 83 µM (inactive) | 43.7 µM (inactive) | > 74.5 µM (inactive) | 40.6 µM (inactive) | > 83 µM (inactive) | > 100 µM (inactive) | > 100 µM (inactive) | 83.4 µM (inactive) | > 100 µM (inactive) | 59.4 µM (inactive) | 11.5 µM (inactive) | 69 µM (inactive) | 53.6 µM (inactive) | 47.3 µM (inactive) | > 92 µM (inactive) | 13.8 µM (inactive) | 34.7 µM (inactive) | > 68.4 µM (inactive) | > 100 µM (inactive) |
| O=C(/C=C/c1c(O)ccc2ccccc12)c1cccc(O)c1 | > 100 | > 100 µM (inactive) | > 100 µM (inactive) | > 100 µM (inactive) | > 100 µM (inactive) | 28.8 µM (inactive) | > 100 µM (inactive) | > 100 µM (inactive) | 44.3 µM (inactive) | 42.3 µM (inactive) | > 100 µM (inactive) | > 100 µM (inactive) | > 100 µM (inactive) | > 100 µM (inactive) | > 100 µM (inactive) | 76.9 µM (inactive) | > 100 µM (inactive) | 71.6 µM (inactive) | – | – |
| Cc1cc(Cl)ccc1NC1=NC(=O)C(CC(=O)Nc2ccc(Cl)cc2Cl)S1 (stereo not drawn) | > 100 | > 100 µM (inactive) | > 100 µM (inactive) | > 100 µM (inactive) | > 100 µM (inactive) | > 100 µM (inactive) | > 100 µM (inactive) | > 100 µM (inactive) | > 100 µM (inactive) | > 100 µM (inactive) | > 100 µM (inactive) | > 100 µM (inactive) | > 100 µM (inactive) | > 100 µM (inactive) | > 100 µM (inactive) | > 100 µM (inactive) | > 100 µM (inactive) | > 100 µM (inactive) | – | – |
| C/C=C/C=C/C=C/C=C/C(=O)O | > 100 | – | > 100 µM (inactive) | > 100 µM (inactive) | > 100 µM (inactive) | > 100 µM (inactive) | > 100 µM (inactive) | > 100 µM (inactive) | > 100 µM (inactive) | > 100 µM (inactive) | > 100 µM (inactive) | > 100 µM (inactive) | > 100 µM (inactive) | > 100 µM (inactive) | > 100 µM (inactive) | > 100 µM (inactive) | > 100 µM (inactive) | > 100 µM (inactive) | – | – |
| O=[N+]([O-])c1cc(-c2nnc(S)[nH]2)ccc1O | 16.5 | > 100 µM (inactive) | > 100 µM (inactive) | > 100 µM (inactive) | 44.4 µM (inactive) | > 100 µM (inactive) | > 100 µM (inactive) | 20.1 µM (inactive) | > 100 µM (inactive) | > 100 µM (inactive) | > 100 µM (inactive) | > 100 µM (inactive) | > 100 µM (inactive) | > 100 µM (inactive) | > 100 µM (inactive) | > 100 µM (inactive) | > 100 µM (inactive) | – | – | – |
